Experiment [1] addresses T1, asialoglycoprotein receptor (Rattus norvegicus, UniProt P02706+P08290).
T1 construct: parenchymal cells isolated from rat liver; endogenous in cells; host or cells: primary parenchymal cells (hepatocytes) isolated from rat liver
T1 sequence (P02706 1-284): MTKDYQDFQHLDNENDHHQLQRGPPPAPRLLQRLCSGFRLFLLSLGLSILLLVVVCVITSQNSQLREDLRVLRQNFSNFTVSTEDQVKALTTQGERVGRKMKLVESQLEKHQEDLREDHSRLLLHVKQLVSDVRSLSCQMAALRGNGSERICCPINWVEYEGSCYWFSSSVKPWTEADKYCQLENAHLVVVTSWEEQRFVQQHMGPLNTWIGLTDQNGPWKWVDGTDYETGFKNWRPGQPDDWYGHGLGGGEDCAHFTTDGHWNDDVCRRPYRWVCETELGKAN
T1 sequence (P08290 1-301): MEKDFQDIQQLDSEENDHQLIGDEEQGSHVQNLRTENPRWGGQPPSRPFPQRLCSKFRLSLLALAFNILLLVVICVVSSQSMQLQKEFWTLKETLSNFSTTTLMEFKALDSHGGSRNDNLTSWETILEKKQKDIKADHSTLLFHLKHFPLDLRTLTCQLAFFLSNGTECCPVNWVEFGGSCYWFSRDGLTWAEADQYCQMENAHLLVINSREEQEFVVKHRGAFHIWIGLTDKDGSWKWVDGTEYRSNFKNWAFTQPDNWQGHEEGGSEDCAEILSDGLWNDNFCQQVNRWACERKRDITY
As to the kind of experiment: Inhibition of binding of radiolabeled asialoorosomucoid to rat liver parenchymal cells. The settings on record: for Ki: rat liver parenchymal cells, labeled asialoorosomucoid. The text has this:
The affinity of cluster glycosides can be verified by means of binding studies. In them, it is considered to what extent the compounds are capable of inhibiting the binding of the radioisotopically labeled asioloorosomucoid to parenchymal cells isolated from rat liver according to a previously described procedure (ref 17). The sugar concentration at which inhibition arises is a measure of the affinity.

Experiment [2] concerns the target T2, Fuc/Gal receptor on the hepatic Kupffer cell (Rattus norvegicus, UniProt P10716).
T2 construct: Kupffer cells in DMEM medium, supplemented with 2% BSA and 2 mM CaCl2; endogenous in cells; host or cells: primary Kupffer cells of liver
T2 sequence (P10716 1-550): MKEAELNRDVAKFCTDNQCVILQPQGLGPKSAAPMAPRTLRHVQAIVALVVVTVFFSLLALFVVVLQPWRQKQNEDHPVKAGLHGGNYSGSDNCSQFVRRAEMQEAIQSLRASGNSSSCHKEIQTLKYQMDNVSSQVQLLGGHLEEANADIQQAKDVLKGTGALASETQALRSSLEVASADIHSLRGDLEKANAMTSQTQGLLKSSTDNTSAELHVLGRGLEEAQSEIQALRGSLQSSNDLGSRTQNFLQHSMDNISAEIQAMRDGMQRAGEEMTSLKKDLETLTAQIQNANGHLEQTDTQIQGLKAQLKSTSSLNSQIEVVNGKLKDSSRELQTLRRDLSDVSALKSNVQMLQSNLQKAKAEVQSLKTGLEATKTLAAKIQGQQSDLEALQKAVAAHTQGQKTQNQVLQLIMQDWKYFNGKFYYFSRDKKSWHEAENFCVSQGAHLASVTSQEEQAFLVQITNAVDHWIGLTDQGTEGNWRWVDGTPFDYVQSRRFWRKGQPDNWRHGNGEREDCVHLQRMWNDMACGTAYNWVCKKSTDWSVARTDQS
The experiment can be described thus: Inhibition of 125I-Lac-LDL binding to Kupffer cells. Conditions: 4° C., 2 h. The protocol:
An idea of the specificity of cluster glycosides for the asialoglycoprotein receptor on the hepatic parenchymal cell can be obtained by comparing the affinity for this receptor with the affinity for the likewise galactose recognizing Fuc/Gal receptor on the hepatic Kupffer cell. […] To that end, Kupffer cells in DMEM medium, supplemented with 2% BSA and 2 mM CaCl2, are incubated at 4° C. for 2 h with 3 μg/ml ^125 I-Lac-LDL in the absence or presence of the compound, in a concentration range of 1 nM to 300 μM. After the incubation the binding of ^125 I-Lac-LDL to the Kupffer cells is determined in a manner identical to that for ^125 I-ASOR binding to liver parenchymal cells.

Experiment [3] has as its system rats. The experiment can be described thus: In vivo fate of lipoprotein (a) charged with glycolipid in rats. On the set-up: species or system rat. Conditions: rats. The text has this:
The so prepared TG(20 Å)-chol (formula 20): [drawing 24] can also be used to direct apo(a) to the hepatic parenchymal cell. High levels of lp(a) are correlated with the occurence of coronary and vascular diseases. To date, an adequate clinical therapy to alleviate the pathogenesis is not available. To investigate whether TG(20 Å)C can be used to stimulate the hepatic uptake and processing of lp(a) this, isolated lp(a) was charged with TG(20 Å)-chol according to a procedure that is known per se and the in vivo behaviour of the particle was studied. Lp(a) (50 μg) in PBS was incubated at 20° C. for 30 min with 0, 5, 15 and 50 μg TG(20 Å) (-chol). This charge led to a changed behaviour of the apo(a) after intravenous injection into rats. This is illustrated in FIG. 8. […] On account of the high […] of TG(20 Å)-chol, very rapidly an exchange of this compound occurs between lp(a) and other lipoproteins and lipid compartments. This then leads to a stabilization of the lp(a) level in the bloodstream after a few minutes.
^125 I-Lp(a) (50 μg) was mixed with 50 μg of TG(20 Å)C or TG(4 Å)C in 500 μl PBS. After 30 min at room temperature, the mixtures were injected into rats at a dose of 50 μg of apolipoprotein/kg body weight. Ten minutes after injection, parenchymal, endothelial and Kupffer cells were isolated from the liver and counted for radioactivity. Values are expressed as 10-3.% of the injected dose per mg of cellular protein and are means of 3 experiments ± s.e.m.

The conditions of experiment [4]: cited from earlier work.
Experiment [5] has as its system rats. The experiment can be described thus: Serum cholesterol lowering after intravenous injection in rats. The experiment is classed as in vivo, rat. The settings on record: injection into vena penis, 0.056-0.56 mg, FIG. 3. The protocol: This was verified as follows. Male rats (250-300 g) were anesthetized by means of ether, whereafter 500 gl PBS, having dissolved therein 0.56 mg, 0.18 mg, 0.056 mg or 0 mg TG(20 Å)-chol (formula 20) or 0.56 mg tris-glu-chol (formula 21): [drawing 19] was injected into the vena penis. At the times indicated in FIG. 3, blood samples of 300 μl were taken by means of orbital puncture. The blood samples were centrifuged (5 min; 1500 g) and the serum was used for a cholesterol assay by means of the CHOD-PAP kit of Boehringer Mannheim. 24 Hours after injection the rat was bled. The blood was centrifuged whereafter the serum was pipeted. Then the serum was subjected to gradient density ultracentrifugation and the various lipoprotein fractions were isolated: HDL (1.21<d<1.05), LDL (1.050<d<1.019), IDL (1.019<d<1.006) and VLDL (d<1.006). Finally, the total cholesterol concentrations of these lipoprotein fractions were assayed by means of the CHOD-PAP kit.

[6] abbreviates: read-out: Asialoglycoprotein receptor Ki.
[7] abbreviates: read-out: Asialoglycoprotein receptor pKi (± S.E.) (converted).
Setting [8] is: read-out: Fuc-Gal receptor pKi (converted).
The mark [9] stands for this setting: 125I-Lp(a) 50 μg + 50 μg glycolipid, 10 min after injection, mean ± s.e.m., 3 experiments.

SMILES strings stand for the structures. Read-outs that look alike come from different tables or passages of the source. A value given as a limit tells only on which side of the number the result lay.

As to `COC(=O)CCCCC(=O)NCC(=O)NC(CO[C@@H]1O[C@H](CO)[C@H](O)[C@H](O)[C@H]1O)(CO[C@@H]1O[C@H](CO)[C@H](O)[C@H](O)[C@H]1O)CO[C@@H]1O[C@H](CO)[C@H](O)[C@H](O)[C@H]1O` [Compound 15a], the Ki was 390 µM in experiment [1] (setting [6]), 389 µM in experiment [1] (setting [7]), over 30 µM in experiment [2] (read-out: Fuc-Gal receptor Ki) and over 31.6 µM in experiment [2] (setting [8]).
The matching figures for `COC(=O)CCCCC(=O)NCC(=O)NC(COCOCCO[C@@H]1O[C@H](CO)[C@H](O)[C@H](O)[C@H]1O)(COCOCCO[C@@H]1O[C@H](CO)[C@H](O)[C@H](O)[C@H]1O)COCOCCO[C@@H]1O[C@H](CO)[C@H](O)[C@H](O)[C@H]1O` [Compound 15b]: 19 µM, 19.1 µM, over 100 µM and over 100 µM.
`COC(=O)CCCCC(=O)NCC(=O)NC(COCOCCCO[C@@H]1O[C@H](CO)[C@H](O)[C@H](O)[C@H]1O)(COCOCCCO[C@@H]1O[C@H](CO)[C@H](O)[C@H](O)[C@H]1O)COCOCCCO[C@@H]1O[C@H](CO)[C@H](O)[C@H](O)[C@H]1O` [Compound 15c]: the “Relative affinity for the ASGPr (in words)” value in experiment [1] (from Table 2) is “slightly higher affinity than TG(13 Å)”. For the same molecule, the Ki was 1.2 µM in experiment [1] (setting [6]), 1.23 µM in experiment [1] (setting [7]), over 100 µM in experiment [2] (read-out: Fuc-Gal receptor Ki) and over 100 µM in experiment [2] (setting [8]).
Regarding `COC(=O)CCCCC(=O)NCC(=O)NC(COCOCCOCCO[C@@H]1O[C@H](CO)[C@H](O)[C@H](O)[C@H]1O)(COCOCCOCCO[C@@H]1O[C@H](CO)[C@H](O)[C@H](O)[C@H]1O)COCOCCOCCO[C@@H]1O[C@H](CO)[C@H](O)[C@H](O)[C@H]1O` [Compound 15d], the Ki in experiment [1] (setting [6]) is 11 µM; in experiment [1] (setting [7]) it was 11.2 µM; in experiment [2] (read-out: Fuc-Gal receptor Ki) it was over 100 µM; in experiment [2] (setting [8]), over 100 µM.
With `COC(=O)CCCCC(=O)NCC(=O)NC(COCOCCOCCOCCOCCO[C@@H]1O[C@H](CO)[C@H](O)[C@H](O)[C@H]1O)(COCOCCOCCOCCOCCO[C@@H]1O[C@H](CO)[C@H](O)[C@H](O)[C@H]1O)COCOCCOCCOCCOCCO[C@@H]1O[C@H](CO)[C@H](O)[C@H](O)[C@H]1O` [Compound 15e], the Ki was 0.2 µM in experiment [1] (setting [6]), 0.209 µM in experiment [1] (setting [7]), over 100 µM in experiment [2] (read-out: Fuc-Gal receptor Ki) and over 100 µM in experiment [2] (setting [8]).
Regarding `CC(C)CCC[C@@H](C)[C@H]1CC[C@H]2[C@@H]3CC=C4C[C@@H](OC(=O)CCC(=O)NCC(=O)NC(CO[C@@H]5O[C@H](CO)[C@H](O)[C@H](O)[C@H]5O)(CO[C@@H]5O[C@H](CO)[C@H](O)[C@H](O)[C@H]5O)CO[C@@H]5O[C@H](CO)[C@H](O)[C@H](O)[C@H]5O)CC[C@]4(C)[C@H]3CC[C@]12C` [TG(4 Å)C, reference compound], in the experiment on rats [3] (setting [9]), the “Contribution to hepatic uptake of Lp(a), EC (endothelial cells)” value stood at 10.4 ± 3% and the “Contribution to hepatic uptake of Lp(a), KC (Kupffer cells)” value stood at 80.3 ± 3%. Further, in the experiment on rats [3], the “Liver cell type location of charged lp(a) (in words)” value was “mainly located in the Kupffer cell”.
With `CC(C)CCC[C@@H](C)[C@H]1CC[C@H]2[C@@H]3CC=C4C[C@@H](OC(=O)CCC(=O)NCC(=O)NC(CO[C@@H]5O[C@H](CO)[C@H](O)[C@H](O)[C@H]5O)(CO[C@@H]5O[C@H](CO)[C@H](O)[C@H](O)[C@H]5O)CO[C@@H]5O[C@H](CO)[C@H](O)[C@H](O)[C@H]5O)CC[C@]4(C)[C@H]3CC[C@]12C` [tris-gal-chol], in experiment [4], the “Removal of cholesterol from the bloodstream and liver uptake” value is “capable of irreversibly removing cholesterol from the bloodstream and inducing cholesterol uptake by the liver”. Moreover, the “Potency as hypolipidemic agent” value in experiment [4] (high doses necessary) was “low”. Besides, in experiment [4] (in vivo), the “Route of LDL removal after injection” value is “via the Fuc/Gal receptors on hepatic Kupffer cells”.
Regarding `CC(C)CCC[C@@H](C)[C@H]1CC[C@H]2[C@@H]3CC=C4C[C@@H](OC(=O)CCC(=O)NCC(=O)NC(CO[C@@H]5O[C@H](CO)[C@@H](O)[C@H](O)[C@H]5O)(CO[C@@H]5O[C@H](CO)[C@@H](O)[C@H](O)[C@H]5O)CO[C@@H]5O[C@H](CO)[C@@H](O)[C@H](O)[C@H]5O)CC[C@]4(C)[C@H]3CC[C@]12C` [tris-glu-chol, reference compound], in the experiment with rats [5], the “Total serum cholesterol level” value is listed as “does not lead to a change in the cholesterol level”.

(Values after patent US5885968A, “Triantennary cluster glycosides, their preparation and use” (Rijksuniversiteit te Leiden, priority 1992, dated 1999).)
